According to the supplement of paper PMC10307832:

Legend:
Assay in all cases: relative viability (nuclei count vs DMSO), 5 days (fraction); higher = more cells survive
[1] = compound: C[C@@]1(C(=O)Nc2ccc(F)nc2)CCCN1c1nc(Nc2cc(C3CC3)n[nH]2)c2cccn2n1 + Cc1nc(NC(=O)N2CCC[C@H]2C(N)=O)sc1-c1ccnc(C(C)(C)C(F)(F)F)c1 [Alpelisib] (partner 2 µM)
Outline: (§1)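 Lung cancer cell lines, seeded in 1536-well plates, were treated the following day by pin tool with a single drug or with five library-drug doses (not always all listed) in √10 steps on top of a fixed anchor-drug dose. Cells were fixed and nuclei stained in one step after 5 days, and nuclei were counted. Relative viability is the nuclei count for treated wells divided by that for vehicle wells, reported as medians of duplicate plates.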

Motesanib + Vorinostat = compound: CC1(C)CNc2cc(NC(=O)c3cccnc3NCc3ccncc3)ccc21 [Motesanib] + O=C(CCCCCCC(=O)Nc1ccccc1)NO [Vorinostat] (partner 1 µM)
Outline: as §1

[2] = compound: C[C@@]1(C(=O)Nc2ccc(F)nc2)CCCN1c1nc(Nc2cc(C3CC3)n[nH]2)c2cccn2n1 + CS(=O)(=O)CCNCc1ccc(-c2ccc3ncnc(Nc4ccc(OCc5cccc(F)c5)c(Cl)c4)c3c2)o1 [Lapatinib] (partner 2 µM)
Outline: as §1

Motesanib + Decitabine = compound: CC1(C)CNc2cc(NC(=O)c3cccnc3NCc3ccncc3)ccc21 [Motesanib] + Nc1ncn([C@H]2C[C@H](O)[C@@H](CO)O2)c(=O)n1 [Decitabine] (partner 2 µM)
Outline: as §1

| Cell Line | relative viability ([1]; first compound 0.04 µM) | relative viability ([1]; first compound 0.1265 µM) | relative viability ([1]; first compound 0.4 µM) | relative viability ([1]; first compound 1.265 µM) | relative viability (Motesanib + Vorinostat; first compound 0.01 µM) | relative viability (Motesanib + Vorinostat; first compound 0.03162 µM) | relative viability (Motesanib + Vorinostat; first compound 0.1 µM) | relative viability (Motesanib + Vorinostat; first compound 0.3162 µM) | relative viability (Motesanib + Vorinostat; first compound 1 µM) | relative viability ([2]; first compound 0.04 µM) | relative viability ([2]; first compound 0.1265 µM) | relative viability ([2]; first compound 0.4 µM) | relative viability ([2]; first compound 1.265 µM) | relative viability (Motesanib + Decitabine; first compound 0.01 µM) | relative viability (Motesanib + Decitabine; first compound 0.03162 µM) | relative viability (Motesanib + Decitabine; first compound 0.1 µM) | relative viability (Motesanib + Decitabine; first compound 0.3162 µM) | relative viability (Motesanib + Decitabine; first compound 1 µM) |
| --- | --- | --- | --- | --- | --- | --- | --- | --- | --- | --- | --- | --- | --- | --- | --- | --- | --- | --- |
| NCI-H838 | 1.05 | 0.819 | 0.815 | 0.982 | 0.735 | 0.75 | 0.801 | 0.779 | 0.737 | 0.895 | 0.85 | 0.597 | 0.622 | 0.484 | 0.49 | 0.541 | 0.572 | 0.582 |
| NCI-H1355 | 0.816 | 0.758 | 0.613 | 0.868 | 0.635 | 0.659 | 0.707 | 0.702 | 0.593 | 0.908 | 0.831 | 0.711 | 0.654 | 0.4 | 0.413 | 0.395 | 0.415 | 0.495 |
| NCI-H1395 | 0.988 | 0.719 | 1.15 | 1.1 | 0.56 | 0.526 | 0.707 | 0.794 | 0.677 | 1.17 | 0.86 | 0.885 | 0.988 | 0.765 | 0.698 | 0.795 | 0.739 | 0.791 |
| NCI-H1437 | 0.722 | 0.561 | 0.581 | 0.717 | 0.927 | 0.73 | 0.759 | 0.799 | 0.852 | 0.626 | 0.445 | 0.369 | 0.496 | 0.596 | 0.544 | 0.58 | 0.548 | 0.629 |
| NCI-H1651 | 0.86 | 0.785 | 0.779 | 0.904 | 0.475 | 0.605 | 0.575 | 0.583 | 0.581 | 0.707 | 0.706 | 0.693 | 0.746 | 0.591 | 0.751 | 0.661 | 0.585 | 0.731 |
| NCI-H1666 | 0.825 | 0.798 | 0.742 | 0.585 | 0.926 | 0.978 | 1.06 | 1 | 1.02 | 0.455 | 0.391 | 0.237 | 0.296 | 0.67 | 0.748 | 0.885 | 0.762 | 0.813 |
| NCI-H1734 | 0.571 | 0.509 | 0.476 | 0.605 | 0.741 | 0.821 | 0.813 | 0.805 | 0.865 | 1 | 0.814 | 0.817 | 0.98 | 0.51 | 0.675 | 0.695 | 0.613 | 0.869 |
| NCI-H1755 | 0.91 | 0.746 | 0.806 | 0.999 | 0.672 | 0.759 | 0.808 | 0.945 | 0.747 | 1.02 | 0.864 | 0.858 | 0.994 | 0.775 | 0.838 | 0.864 | 0.905 | 0.913 |
| NCI-H1793 | 0.731 | 0.625 | 0.553 | 0.731 | 0.836 | 0.776 | 0.725 | 0.892 | 0.757 | 0.801 | 0.469 | 0.568 | 0.53 | 0.561 | 0.539 | 0.663 | 0.755 | 0.589 |
| NCI-H1915 | 1.09 | 1.08 | 1.04 | 1.06 | 0.603 | 0.489 | 0.479 | 0.544 | 0.527 | 0.964 | 0.999 | 1.01 | 0.994 | 0.272 | 0.262 | 0.36 | 0.306 | 0.383 |
| NCI-H1944 | 0.72 | 0.657 | 0.669 | 0.834 | 0.52 | 0.562 | 0.51 | 0.634 | 0.537 | 0.679 | 0.536 | 0.426 | 0.582 | 0.477 | 0.444 | 0.495 | 0.534 | 0.508 |
| NCI-H1975 | 0.638 | 0.553 | 0.472 | 0.482 | 0.738 | 0.616 | 0.707 | 0.739 | 0.652 | 0.844 | 0.88 | 0.601 | 0.594 | 0.364 | 0.459 | 0.406 | 0.487 | 0.426 |
| NCI-H1993 | 0.678 | – | 0.649 | 0.745 | 0.63 | 0.757 | 0.881 | 0.746 | 0.813 | 0.797 | – | 0.663 | 0.592 | 0.598 | 0.568 | 0.609 | 0.657 | 0.659 |
| NCI-H2009 | 1.17 | 1.24 | 1.12 | 1.22 | 0.671 | 0.636 | 0.823 | 0.729 | 0.71 | 1.04 | 1.02 | 0.856 | 0.607 | 0.394 | 0.369 | 0.394 | 0.38 | 0.463 |
| NCI-H2023 | 0.407 | 0.374 | 0.376 | 0.407 | 0.729 | 0.606 | 0.615 | 0.838 | 0.723 | 0.722 | 0.542 | 0.259 | 0.236 | 0.23 | 0.226 | 0.281 | 0.25 | 0.347 |
